In ChEMBL document CHEMBL4417631, “Oral peptide inhibitors of interleukin-23 receptor and their use to treat inflammatory bowel diseases” (2017):

What was measured:
Interleukin-23 receptor [1] = target: T1, Interleukin-23 receptor (Homo sapiens, UniProt Q5VWK5); assay: Inhibition of interleukin-23 binding to human interleukin-23 receptor incubated for 2 hrs by competitive binding ELISA
T1 sequence (Q5VWK5 whole entry): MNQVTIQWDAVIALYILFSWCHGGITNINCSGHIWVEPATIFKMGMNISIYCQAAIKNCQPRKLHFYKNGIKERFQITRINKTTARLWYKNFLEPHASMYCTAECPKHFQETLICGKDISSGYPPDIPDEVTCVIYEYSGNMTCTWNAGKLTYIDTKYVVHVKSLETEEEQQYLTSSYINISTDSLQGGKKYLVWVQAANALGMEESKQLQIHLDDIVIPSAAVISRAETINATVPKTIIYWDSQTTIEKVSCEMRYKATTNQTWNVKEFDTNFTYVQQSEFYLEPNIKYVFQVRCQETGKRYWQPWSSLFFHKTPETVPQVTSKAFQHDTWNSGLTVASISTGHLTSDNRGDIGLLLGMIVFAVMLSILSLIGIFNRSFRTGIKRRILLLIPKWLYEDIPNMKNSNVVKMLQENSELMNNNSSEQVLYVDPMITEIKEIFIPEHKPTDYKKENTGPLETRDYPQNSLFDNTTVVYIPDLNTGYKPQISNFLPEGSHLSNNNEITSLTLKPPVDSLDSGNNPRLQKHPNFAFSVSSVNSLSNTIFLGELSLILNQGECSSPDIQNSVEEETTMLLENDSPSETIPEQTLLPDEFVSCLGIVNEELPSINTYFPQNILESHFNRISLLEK

Interleukin-23 receptor [2] = target: T1, Interleukin-23 receptor; assay: Inhibition of interleukin-23 receptor in human DB cells assessed as reduction in IL-23-stimulated STAT3 phosphorylation incubated for 30 mins by HTRF assay; format: cell-based
[3] = Inhibition of interleukin-23 binding to rat interleukin-23 receptor incubated for 2 hrs by competitive binding ELISA
[4] = Half life in simulated intestinal fluid at 20 uM by LC-MS/MS analysis; format: ADME

SMILES: CC(=O)NCCCC[C@H](NC(=O)[C@](C)(CCCCN)NC(=O)[C@H](Cc1ccc2ccccc2c1)NC(=O)[C@H](Cc1ccc(OCCN)cc1)NC(=O)[C@@H](NC(=O)[C@H](CCC(N)=O)NC(=O)[C@H](Cc1c[nH]c2ccccc12)NC(=O)[C@@H](NC(=O)[C@H](CCC(N)=O)NC(=O)[C@@H](NC(C)=O)C(C)(C)S)[C@@H](C)O)C(C)(C)S)C(=O)N[C@@H](CC(N)=O)C(=O)NCC(N)=O
- IC50 (Interleukin-23 receptor [1]): < 10 nM
- IC50 (Interleukin-23 receptor [2]): < 10 nM
- IC50 [3]: 25 to 100 nM

SMILES: CC(=O)N[C@@H](CS)C(=O)N[C@@H](C)C(=O)N[C@@H](CC(=O)O)C(=O)N[C@@H](Cc1c[nH]c2ccccc12)C(=O)N[C@H](C(=O)N[C@H](C(=O)N[C@@H](Cc1ccc(O)cc1)C(=O)N[C@@H](Cc1c[nH]c2ccccc12)C(=O)N[C@@H](Cc1cnc[nH]1)C(=O)N[C@H](C(=O)N[C@@H](Cc1ccccc1)C(=O)NCC(=O)NCCOCC(=O)N[C@H](CCCCN)C(N)=O)[C@@H](C)O)C(C)(C)S)C(C)C
- IC50 (Interleukin-23 receptor [1]): > 30000 nM
- IC50 (Interleukin-23 receptor [2]): 100 to 1000 nM
- IC50 [3]: 1000 to 10000 nM

SMILES: COc1ccc(C[C@H](NC(=O)[C@@H](NC(=O)[C@H](CCC(N)=O)NC(=O)[C@H](Cc2c[nH]c3ccccc23)NC(=O)[C@@H](NC(=O)[C@H](CCC(N)=O)NC(=O)[C@@H](NCN2C(=O)COCC2=O)C(C)(C)S)[C@@H](C)O)C(C)(C)S)C(=O)N[C@@H](Cc2ccc3ccccc3c2)C(=O)N[C@@](C)(CCCCN)C(=O)N[C@@H](CCCCNC(C)=O)C(=O)N[C@@H](CC(N)=O)C(=O)NCC(N)=O)cc1
- IC50 (Interleukin-23 receptor [1]): 25 to 100 nM
- IC50 (Interleukin-23 receptor [2]): 10 to 25 nM
- IC50 [3]: 25 to 100 nM

SMILES: CC(=O)NCCCC[C@](C)(NC(=O)[C@H](Cc1ccc2ccccc2c1)NC(=O)[C@H](Cc1ccc(OCCNC(C)=O)cc1)NC(=O)[C@@H]1CSCC[C@H](NC(C)=O)C(=O)N[C@@H](CCC(N)=O)C(=O)N[C@@H]([C@@H](C)O)C(=O)N[C@@H](Cc2c[nH]c3ccccc23)C(=O)N[C@@H](CCC(N)=O)C(=O)N1)C(=O)N[C@@H](CCC(=O)O)C(=O)N[C@@H](CC(N)=O)C(=O)N[C@@H](CC(N)=O)C(N)=O
- IC50 (Interleukin-23 receptor [1]): < 10 nM
- IC50 (Interleukin-23 receptor [2]): < 10 nM
- IC50 [3]: < 10 nM

SMILES: COc1ccc(C[C@H](NC(=O)[C@@H](NC(=O)[C@H](CCC(N)=O)NC(=O)[C@H](Cc2c[nH]c3ccccc23)NC(=O)[C@@H](NC(=O)[C@H](CCC(N)=O)NC(=O)[C@@H](NC(C)=O)C(C)(C)S)[C@@H](C)O)C(C)(C)S)C(=O)N[C@@H](Cc2c[nH]c3ccccc23)C(=O)N[C@@](C)(CCCCN)C(=O)N[C@@H](CCCCNC(C)=O)C(=O)N[C@@H](CC(N)=O)C(=O)NCC(N)=O)cc1
- IC50 (Interleukin-23 receptor [1]): 25 to 100 nM
- IC50 (Interleukin-23 receptor [2]): 10 to 25 nM
- IC50 [3]: 25 to 100 nM
- half-life at 20 µM [4]: > 6 h

SMILES: COc1ccc(C[C@H](NC(=O)[C@@H]2CSCC[C@H](NC(C)=O)C(=O)N[C@@H](CCC(N)=O)C(=O)N[C@@H]([C@@H](C)O)C(=O)N[C@@H](Cc3c[nH]c4ccccc34)C(=O)N[C@@H](CCC(N)=O)C(=O)N2)C(=O)N[C@@H](Cc2ccc3ccccc3c2)C(=O)NC(C)(C)C(=O)N[C@@H](CCCCNC(C)=O)C(=O)N[C@@H](CC(N)=O)C(=O)NCC(N)=O)cc1
- IC50 (Interleukin-23 receptor [1]): 10 to 25 nM
- IC50 (Interleukin-23 receptor [2]): < 10 nM
- IC50 [3]: 25 to 100 nM
- half-life at 20 µM [4]: > 6 h

SMILES: CC(=O)N[C@H](C(=O)N[C@@H](CN)C(=O)N[C@H](C(=O)N[C@@H](Cc1c[nH]c2ccccc12)C(=O)N[C@@H](CCC(N)=O)C(=O)N[C@H](C(=O)N[C@@H](Cc1ccc(OCCN)cc1)C(=O)N[C@@H](Cc1ccc2ccccc2c1)C(=O)N[C@@](C)(CCCCN)C(=O)N[C@@H](CCC(=O)O)C(=O)N[C@@H](CC(N)=O)C(=O)NCC(N)=O)C(C)(C)S)[C@@H](C)O)C(C)(C)S
- IC50 (Interleukin-23 receptor [1]): < 10 nM
- IC50 (Interleukin-23 receptor [2]): < 10 nM
- IC50 [3]: 25 to 100 nM

SMILES: CC(=O)N[C@@H](CS)C(=O)N[C@@H](CCC(N)=O)C(=O)N[C@H](C(=O)N[C@@H](Cc1c[nH]c2ccccc12)C(=O)N[C@@H](CCC(N)=O)C(=O)N[C@H](C(=O)N[C@@H](Cc1ccc(O)cc1)C(=O)N[C@@H](Cc1c[nH]c2ccccc12)C(=O)N[C@@](C)(CC(C)C)C(=O)N[C@@H](CCC(=O)O)C(=O)N[C@@H](CC(N)=O)C(=O)NCC(N)=O)C(C)(C)S)[C@@H](C)O
- IC50 (Interleukin-23 receptor [1]): 100 to 1000 nM
- IC50 [3]: 100 to 1000 nM
- half-life at 20 µM [4]: < 1 h

SMILES: CC(=O)N[C@H](C(=O)N[C@@H](CCCNC(=N)N)C(=O)N[C@H](C(=O)N[C@@H](Cc1c[nH]c2ccccc12)C(=O)N[C@@H](CCC(N)=O)C(=O)N[C@@H](CS)C(=O)N[C@@H](Cc1ccc(O)cc1)C(=O)N[C@@H](Cc1c[nH]c2ccccc12)C(=O)N[C@@H](CCCNC(=N)N)C(=O)N[C@@H](CCCCN)C(=O)N[C@@H](Cc1ccccc1)C(=O)NCC(=O)NCCOCC(=O)N[C@H](CCCCN)C(N)=O)[C@@H](C)O)C(C)(C)S
- IC50 (Interleukin-23 receptor [1]): 100 to 1000 nM
- IC50 (Interleukin-23 receptor [2]): 100 to 1000 nM
- IC50 [3]: 100 to 1000 nM
